Data on 5 molecules can be found in patent US11273151B2, “Methods of treating tumors and cancer, and identifying candidate subjects for such treatment” (ICAHN SCHOOL OF MEDICINE AT MOUNT SINAI, priority 2015, dated 2022).

Assay [1] deals with TEAD/YAP dependent transcription. Kind of assay: TEAD4 luciferase reporter assay. In kind it is cell-based, human. Here is the method: Cells were plated at 2×10^4 cells/well in 24 well plates, unless otherwise stated, 48 hours before collection and treated or genetically manipulated as described. Firefly and renilla luciferase activities were assayed with the dual luciferase assay system (Promega, Madison Wis., USA), as directed, and firefly luciferase activity was normalized to renilla luciferase activity. Firefly and renilla luminescence were measured with the TD-20e Luminometer (Turner).

A further assay has as its system MDA-MB-231. Kind of assay: Clonogenic cell proliferation assay, MDA-MB-231. In kind it is cell-based, human. The note with it: 10 μM; MDA-MB-231, p53 DNA-contact mutation. Here is the method:
(§1) For clonogenic assay, cells were plated in triplicate at 1×10^3 cells in 6-well plates. Cells were treated or genetically manipulated as described. After 10 to 14 days, colonies were stained with 1% crystal violet in ethanol and photographed.

The test system of a further assay is SK-BR-3. Nature of the assay: Clonogenic cell proliferation assay, SK-BR-3. Format: cell-based, human. As to conditions: 10 μM; SK-BR-3, p53 conformational mutation. Here is the method: as §1
For a further assay, the system named is MCF10A cells. Kind of assay: Anchorage-independent growth assay in soft agar. In kind it is cell-based. The note with it: FIG. 4C. The protocol:
Growth in soft agar was determined by seeding 2.5×10^3 MCF10A cells in 1 ml of growth media containing 0.3% agar (BD 214050) on top of 1 ml of 0.48% agar in 35-mm dishes. Cells were fed every 4 days for 3 weeks with 0.2 mL of growth medium. Colonies were stained with 1% crystal violet in ethanol and photographed. Colony density was measured using Image J. Assays were conducted in triplicate.

The subject of another assay is non-tumorigenic cells. Nature of the assay: Proliferation of non-tumorigenic cells. Format: cell-based. As to conditions: FIG. 7. The protocol:
as §1

The test system of assay [2] is tumor lines with p53 DNA-contact mutations. Kind of assay: Clonogenic cell proliferation assay, p53 DNA-contact mutant tumor lines. In kind it is cell-based, human. The protocol:
as §1

Assay [3] relates to TEAD endogenous target gene expression. Nature of the assay: Quantitative real-time PCR of TEAD endogenous target genes. Format: cell-based, human. As to conditions: p53 DNA-contact mutant tumor lines. The protocol: Total RNA was extracted from cells using QIAshredder (Qiagen, Valencia, Calif., USA) and RNeasy Mini kit (Qiagen) following the manufacturer's instructions. First-strand cDNA synthesis was performed using Superscript II reverse transcriptase (Invitrogen, Carlsbad, Calif., USA) according to the manufacturer's instructions. Quantitative PCR was carried out using the ViiA™ 7 Real-Time PCR System (Life Technologies) using the FastStart SYBR Green Master mix (Roche, 04673492001). Primers were as follows: PCR was performed in 384 well plates using 10 μl volumes under the following conditions: 95° C. for 15 min, followed by 40 cycles of 94° C. for 15 sec, 61° C. for 30 sec, and 72° C. for 30 sec. Specificity was verified by a dissociation curve. Results were analyzed with ViiA7 RUO software (Life Technologies).

Assay [4] deals with tumor lines expressing p53 conformational mutations. Kind of assay: Clonogenic cell proliferation assay, p53 conformational mutant tumor lines. Format: cell-based, human. As to conditions: for inhibition of proliferation: single agent, concentration not given. The protocol: as §1
Another assay deals with ROCK1 (Homo sapiens, UniProt Q13464). As to conditions: read-out: reported ICD50 for inhibition of ROCK1; cited from earlier work.
For the next assay, the target named is ROCK2 (Homo sapiens, UniProt O75116). The note with it: read-out: reported ICD50 for inhibition of ROCK2; cited from earlier work.
A further assay relates to HCC-193. Kind of assay: Clonogenic cell proliferation assay, HCC-193. In kind it is cell-based, human. As to conditions: HCC-193, p53-DNA contact tumor line. The protocol:
as §1

Assay [5] deals with tumor lines harboring mutations in Hippo pathway core components. Kind of assay: Proliferation of tumor lines with Hippo pathway core component lesions. In kind it is cell-based. The note with it: tumor cells with lesions in Hippo pathway core components. The protocol: as §1
The next assay concerns MDA-MB-468. Kind of assay: Clonogenic cell proliferation assay, MDA-MB-468. In kind it is cell-based, human. The note with it: MDA-MB-468, p53-DNA contact tumor line. The protocol: as §1
The subject of another assay is HCC-1395. Nature of the assay: Clonogenic cell proliferation assay, HCC-1395. In kind it is cell-based, human. As to conditions: HCC-1395, p53 conformational mutant line. The protocol:
as §1

The test system of the next assay is SK-LMS-1. Kind of assay: Clonogenic cell proliferation assay, SK-LMS-1. In kind it is cell-based, human. As to conditions: SK-LMS-1, p53 conformational mutation; concentration not given. The protocol:
as §1

The mark [6] stands for this setting: single agent, concentration not given.

Entries after “also recorded” stand apart in the source; their conditions may differ.

Sequence of ROCK1 (Q13464 whole entry): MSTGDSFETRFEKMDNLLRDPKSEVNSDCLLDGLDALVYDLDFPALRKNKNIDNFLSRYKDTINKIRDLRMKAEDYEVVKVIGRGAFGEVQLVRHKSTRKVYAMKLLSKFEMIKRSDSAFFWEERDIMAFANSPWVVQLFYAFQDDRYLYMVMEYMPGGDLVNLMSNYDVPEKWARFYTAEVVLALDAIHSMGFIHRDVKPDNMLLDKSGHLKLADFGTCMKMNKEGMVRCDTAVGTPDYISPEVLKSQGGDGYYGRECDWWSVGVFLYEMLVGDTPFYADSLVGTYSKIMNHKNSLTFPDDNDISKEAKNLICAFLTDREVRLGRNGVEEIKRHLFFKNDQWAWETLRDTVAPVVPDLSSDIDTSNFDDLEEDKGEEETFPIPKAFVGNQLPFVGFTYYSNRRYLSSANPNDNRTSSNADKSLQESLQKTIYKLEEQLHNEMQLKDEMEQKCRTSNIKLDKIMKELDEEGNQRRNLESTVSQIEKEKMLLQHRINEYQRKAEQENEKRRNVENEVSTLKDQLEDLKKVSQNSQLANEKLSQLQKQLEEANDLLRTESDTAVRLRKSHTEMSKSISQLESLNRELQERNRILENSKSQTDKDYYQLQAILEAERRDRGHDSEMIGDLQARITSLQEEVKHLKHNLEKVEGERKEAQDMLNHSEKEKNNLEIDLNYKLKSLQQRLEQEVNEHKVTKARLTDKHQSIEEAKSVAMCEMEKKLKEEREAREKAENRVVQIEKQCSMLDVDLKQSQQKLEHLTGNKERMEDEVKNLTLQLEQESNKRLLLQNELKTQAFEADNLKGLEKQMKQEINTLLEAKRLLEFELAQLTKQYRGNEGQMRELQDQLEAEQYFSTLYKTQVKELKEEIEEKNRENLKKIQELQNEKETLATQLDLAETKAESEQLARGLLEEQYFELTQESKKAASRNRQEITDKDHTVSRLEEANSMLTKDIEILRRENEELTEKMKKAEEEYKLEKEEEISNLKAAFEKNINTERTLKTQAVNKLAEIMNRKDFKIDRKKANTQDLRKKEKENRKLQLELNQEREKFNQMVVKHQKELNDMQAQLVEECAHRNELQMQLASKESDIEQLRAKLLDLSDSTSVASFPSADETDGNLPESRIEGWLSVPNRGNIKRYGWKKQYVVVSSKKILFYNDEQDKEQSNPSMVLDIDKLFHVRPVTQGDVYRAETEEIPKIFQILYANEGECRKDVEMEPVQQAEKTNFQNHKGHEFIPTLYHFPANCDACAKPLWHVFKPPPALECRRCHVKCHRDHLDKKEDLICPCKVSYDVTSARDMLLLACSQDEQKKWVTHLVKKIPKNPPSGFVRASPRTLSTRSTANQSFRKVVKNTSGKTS
Sequence of ROCK2 (O75116 whole entry): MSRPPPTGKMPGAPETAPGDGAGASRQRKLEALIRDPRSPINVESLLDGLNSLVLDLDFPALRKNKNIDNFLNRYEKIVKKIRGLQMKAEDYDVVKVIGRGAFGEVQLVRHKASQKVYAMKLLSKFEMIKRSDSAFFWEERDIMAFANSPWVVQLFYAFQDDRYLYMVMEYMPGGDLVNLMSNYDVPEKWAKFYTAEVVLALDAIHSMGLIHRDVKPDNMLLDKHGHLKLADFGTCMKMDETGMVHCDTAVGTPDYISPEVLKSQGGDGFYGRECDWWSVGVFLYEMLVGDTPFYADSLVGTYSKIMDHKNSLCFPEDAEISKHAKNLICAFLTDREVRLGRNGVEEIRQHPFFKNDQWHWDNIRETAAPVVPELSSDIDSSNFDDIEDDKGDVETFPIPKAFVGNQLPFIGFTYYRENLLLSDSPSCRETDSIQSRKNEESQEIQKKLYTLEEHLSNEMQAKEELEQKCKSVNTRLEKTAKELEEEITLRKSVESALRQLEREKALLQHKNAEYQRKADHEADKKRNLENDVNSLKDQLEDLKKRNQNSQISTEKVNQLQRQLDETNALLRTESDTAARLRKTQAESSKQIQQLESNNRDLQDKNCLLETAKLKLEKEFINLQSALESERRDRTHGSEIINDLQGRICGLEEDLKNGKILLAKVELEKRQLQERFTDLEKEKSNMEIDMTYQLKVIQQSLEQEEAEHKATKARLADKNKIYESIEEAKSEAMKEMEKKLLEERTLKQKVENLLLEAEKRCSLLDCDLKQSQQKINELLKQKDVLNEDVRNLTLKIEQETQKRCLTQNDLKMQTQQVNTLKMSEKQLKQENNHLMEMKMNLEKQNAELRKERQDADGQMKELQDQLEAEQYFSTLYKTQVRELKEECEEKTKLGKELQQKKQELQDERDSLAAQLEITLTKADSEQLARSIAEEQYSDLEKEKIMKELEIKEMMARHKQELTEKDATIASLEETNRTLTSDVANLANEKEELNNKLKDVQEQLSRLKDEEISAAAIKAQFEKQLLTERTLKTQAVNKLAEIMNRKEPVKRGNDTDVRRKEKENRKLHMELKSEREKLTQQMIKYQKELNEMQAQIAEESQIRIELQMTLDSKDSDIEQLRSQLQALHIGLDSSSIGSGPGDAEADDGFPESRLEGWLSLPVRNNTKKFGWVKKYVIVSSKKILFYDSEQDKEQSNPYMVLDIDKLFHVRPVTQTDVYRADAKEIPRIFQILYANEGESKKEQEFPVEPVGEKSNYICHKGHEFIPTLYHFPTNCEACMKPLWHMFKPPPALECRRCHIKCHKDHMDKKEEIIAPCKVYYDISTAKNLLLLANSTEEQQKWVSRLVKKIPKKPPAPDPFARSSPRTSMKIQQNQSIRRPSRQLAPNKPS

Turning to `O=S(=O)(c1cccc2cnccc12)N1CCCNCC1` [Fasudil], in assay [1] (10 μM, MDA-MB-231, FIG. 5A), the “inhibition of TEAD/YAP dependent transcription (TEAD reporter activity)” value is reported as “little if any detectable inhibition; also recorded: lack of effect”. The effect on proliferation result in the assay on MDA-MB-231 and in the assay on SK-BR-3 was “no effect” in each case.
Take `C[C@@H](N)[C@H]1CC[C@H](C(=O)Nc2ccncc2)CC1` [Y-27632]: the “effect on TEAD reporter” value in [1] (p53 DNA-contact mutant tumor lines, FIG. 4A) is “antagonized”. Moreover, the “effect on transforming ability (colony formation in soft agar)” value is “specifically and markedly impaired the transforming ability” in the assay on MCF10A cells (MCF10a cells overexpressing YAP); “lack of effects” with MCF10A cells (MCF10a cells overexpressing mutant HRAS); “lack of effects” with MCF10A cells (MCF10a cells overexpressing p53 R175H (conformational)); “specifically and markedly impaired the transforming ability” in the assay on MCF10A cells (MCF10a cells overexpressing p53 R273H (DNA contact)). Moreover, the inhibition of proliferation entry with non-tumorigenic cells is reported as “neither XAV939 nor Y-27632 inhibits proliferation”; in assay [2] (setting [6]), “specifically inhibiting the proliferation; also recorded: specifically inhibit the proliferation; also recorded: antagonize the proliferation; also recorded: specifically inhibited proliferation”; in assay [4] it was “neither XAV939 nor Y-27632 inhibits proliferation”. For the same molecule, in [2] (10-50 uM, 3 different p53 contact mutant tumor cells, FIG. 5B), the “inhibition of colony formation / proliferation” value was “almost complete inhibition of colony formation; also recorded: specific inhibition of proliferation”. Besides, the “effect on TEAD endogenous target gene expression” value in assay [3] is “antagonized”. Also, the “inhibition of colony formation” value in assay [4] (even at 100 μM, FIG. 5B) is listed as “no detectable inhibition of colony formation”. In addition, in [4] (tumor cells without p53 DNA contact mutation, FIG. 4B), the “growth inhibitory effects on any of the other tumor cells analyzed” value was “without any obvious growth inhibitory effects”.
Consider `Cc1cncc2cccc(S(=O)(=O)N3CCCN(C(=O)CN)C[C@@H]3C)c12` [Glycyl-H-1152], for which the “inhibition of TEAD/YAP dependent transcription” value in [1] (1 μM, MDA-MB-231, FIG. 5A) is recorded as “marked inhibition”. Further, in assay [2] (1 μM), the inhibition of proliferation result is “strikingly and specifically inhibited proliferation”. Moreover, the “concentration for specific inhibition of proliferation, lower than Y-27632” value in assay [2] (relative to Y-27632) stood at 10 fold. For the same molecule, the figures for the IC50 on ROCK1 and at ROCK2 were 6 nM and 11.8 nM, respectively.
As for Verteporfin, the inhibition of proliferation result in assay [2] (setting [6]) is given as “inhibit proliferation”; in [4], “inhibited the proliferation; also recorded: inhibiting proliferation”.
For the molecule `Oc1nc(-c2ccc(C(F)(F)F)cc2)nc2c1CSCC2` [XAV939], the inhibition of proliferation entry is given as “neither XAV939 nor Y-27632 inhibits proliferation” in the assay with non-tumorigenic cells; “antagonize the proliferation” in assay [2] (setting [6]); “able to inhibit the proliferation” with HCC-193; “able to inhibit the proliferation” in the assay on MDA-MB-468; “neither XAV939 nor Y-27632 inhibits proliferation” in assay [4]; “had no effect on the proliferation” with HCC-1395. Further, the inhibition of proliferation result in the assay with SK-LMS-1 is “had no effect on the proliferation”. Also, in assay [5], the “effect on growth / proliferation” value is recorded as “inhibits proliferation”.
